These results are taken from ChEMBL document CHEMBL1629610, “A 6-aminoquinolone compound, WC5, with potent and selective anti-human cytomegalovirus activity” (Antimicrob Agents Chemother, 2009).

Data set [1] can be described thus: Cytotoxicity against human MOLT4 cells by MTT assay. The class given is cell-based, MOLT-4. For orientation: Tetrazolium assays rely on reduction of a dye to a coloured formazan, in cell work by metabolically active cells.
Data set [2] concerns Human betaherpesvirus 5. The data set can be described thus: Antiviral activity against GDG-, GCV-,CDV-resistant Human cytomegalovirus P53 harboring DNA polymerase A987G mutant gene infected in human foreskin fibroblast by plaque reduction assay. The class given is functional, organism-based. To be noted: Human betaherpesvirus 5, P53. (Plaques are areas of infected cells; plaque reduction assays count them against a control.)

Data set [3] has as its system Human betaherpesvirus 5. Briefly: Antiviral activity against Human cytomegalovirus infected in human […] cells transfected with pcDNA3.1-human GADPH-GFP assessed as induction of GFP-tagged viral immediate early gene expression at 50 uM after 48 hrs by transactivation assay. The class given is functional, organism-based. As to conditions: AD169.
Data set [4] is described as follows: Cytotoxicity against human BC-3 cells by MTT assay. The class given is cell-based.
The subject of data set [5] is Human gammaherpesvirus 8. The data set can be described thus: Antiviral activity against Human herpesvirus 8 infected in human BC-3 cells assessed as inhibition of virus DNA replication after 12 days by quantitative real time PCR. The format is functional, organism-based. As to conditions: Human gammaherpesvirus 8, BC-3, 288 h. (In qPCR the cycle at which signal appears reflects the starting amount.)

Data set [6] in a line: Selectivity index, ratio of CC50 for human BC-3 cells to EC50 for Human herpesvirus 8. As to conditions: read-out: Ratio CC50/EC50. The class given is toxicity, cell-based.
The test system of data set [7] is Human betaherpesvirus 5. The data set can be described thus: Antiviral activity against GDG-, GCV-resistant Human cytomegalovirus K17 harboring 4-aa deletion (638-641) in UL97 kinase infected in human foreskin fibroblast by plaque reduction assay. The format is functional, organism-based. To be noted: Human betaherpesvirus 5, K17.
Data set [8] can be described thus: Antiviral activity against Murine cytomegalovirus Smith infected in mouse NIH-3T3 cells assessed as inhibition of virus DNA replication after 12 days by plaque reduction assay. The format is functional, cell-based, Murine cytomegalovirus (strain Smith). As to conditions: Murid betaherpesvirus 1, NIH3T3, 288 h.
The subject of data set [9] is Human betaherpesvirus 5. Briefly: Antiviral activity against Human cytomegalovirus infected in human […] cells transfected with pcDNA3.1-HIV1 LTR-GFP assessed as induction of GFP-tagged viral immediate early gene expression at 50 uM after 48 hrs by transactivation assay. The format is functional, organism-based. To be noted: AD169.
For another data set, the system named is HSB-2. The data set can be described thus: Antiviral activity against Human herpesvirus 6A GS infected in human HSB-2 cells assessed as inhibition of virus-induced cytopathic effect by microscopic estimation. The class given is functional, cell-based. As to conditions: Human herpesvirus 6 (strain GS).
Data set [10] is described as follows: Selectivity index, ratio of CC50 for human HSB-2 cells to EC50 for Human herpesvirus 6A GS. The class given is toxicity, cell-based. As to conditions: read-out: Ratio CC50/EC50.
Data set [11] in a line: Selectivity index, ratio of CC50 for mouse NIH 3T3 cells to EC50 for Murine cytomegalovirus. The format is toxicity, cell-based, NIH3T3. As to conditions: read-out: Ratio CC50/EC50.
Data set [12] has as its system Human gammaherpesvirus 8. Briefly: Antiviral activity against Human herpesvirus 8 infected in human BC-3 cells assessed as inhibition of virus-induced cytopathic effect by microscopic estimation. The format is functional, organism-based.
For data set [13], the system named is Human betaherpesvirus 5. Briefly: Antiviral activity against PFA-, acyclovir-resistant Human cytomegalovirus D100 harboring mutation in DNA polymerase infected in human foreskin fibroblast by plaque reduction assay. The class given is functional, organism-based. To be noted: Human betaherpesvirus 5, D100.
For data set [14], the system named is Human betaherpesvirus 5. Briefly: Antiviral activity against Human cytomegalovirus AD169 infected in human foreskin fibroblast by plaque reduction assay. As to conditions: Human betaherpesvirus 5, AD169. The class given is functional, organism-based.
A further data set relates to MOLT-4. The data set can be described thus: Antiviral activity against Human herpesvirus 6B Z29 infected in human MOLT4 cells assessed as inhibition of virus-induced cytopathic effect by microscopic estimation. The class given is functional, cell-based. As to conditions: Human herpesvirus 6 strain Z29.
A short description of data set [15]: Ratio of EC50 for Human cytomegalovirus AD169 to EC50 for Murine cytomegalovirus. The format is functional.
The nature of data set [16]: Selectivity index, ratio of CC50 for human MOLT4 cells to EC50 for Human herpesvirus 6B Z29. To be noted: read-out: Ratio CC50/EC50. The class given is toxicity, cell-based, MOLT-4.
Data set [17] is described as follows: Cytotoxicity against mouse NIH/3T3 cells by MTT assay. The class given is cell-based, NIH3T3.
The nature of data set [18]: Antiviral activity against Human herpesvirus 6B Z29 infected in human MOLT4 cells assessed as inhibition of virus DNA replication after 12 days by quantitative real time PCR. The class given is functional, cell-based, Human herpesvirus 6 strain Z29. To be noted: Human betaherpesvirus 6B, MOLT-4, 288 h.
The test system of data set [19] is Human betaherpesvirus 5. Briefly: Antiviral activity against GCV-resistant Human cytomegalovirus 759rD100 harboring 4-aa deletion (638-641) in UL97 kinase and DNA polymerase A987G mutant infected in human foreskin fibroblast by plaque reduction assay. The format is functional, organism-based. As to conditions: Human betaherpesvirus 5, 759rD100.
Data set [20] can be described thus: Cytotoxicity against human HSB2 cells by MTT assay. The class given is cell-based, CCRF-HSB-2.
Data set [21] concerns Human betaherpesvirus 5. The data set can be described thus: Antiviral activity against Human cytomegalovirus AD169 infected in human […] cells assessed as induction of GFP-tagged viral immediate early gene expression at 50 uM after 48 hrs by flow cytometry. The class given is functional, organism-based.
Data set [22] can be described thus: Antiviral activity against Human herpesvirus 6A GS infected in human HSB-2 cells assessed as inhibition of virus DNA replication after 12 days by quantitative real time PCR. The class given is functional, cell-based, Human herpesvirus 6 (strain GS). To be noted: Human betaherpesvirus 6A, HSB2, 288 h.
Data set [23] in a line: Cytotoxicity against human foreskin fibroblast after 5 days by MTT assay. As to conditions: human foreskin fibroblasts (HFF). The class given is cell-based.
Data set [24] concerns Human betaherpesvirus 5. Briefly: Antiviral activity against Human cytomegalovirus infected in human […] cells transfected with pcDNA3.1-human EF1alpha-GFP assessed as induction of GFP-tagged viral immediate early gene expression at 50 uM after 48 hrs by transactivation assay. The class given is functional, organism-based. As to conditions: AD169.
A short description of data set [25]: Selectivity index, ratio of CC50 for Human foreskin fibroblast to EC50 for Human cytomegalovirus AD169.
The test system of data set [26] is Human betaherpesvirus 5. Briefly: Antiviral activity against Human cytomegalovirus infected in human […] cells transfected with pcDNA3.1-HIV1 LTR-GFP assessed as induction of GFP-tagged viral immediate early gene expression at 0.5 uM after 48 hrs by transactivation assay. The format is functional, organism-based. To be noted: AD169.
The subject of data set [27] is Human betaherpesvirus 5. Briefly: Antiviral activity against Human cytomegalovirus AD169 infected in human […] cells assessed as induction of GFP-tagged viral immediate early gene expression at 0.5 uM after 48 hrs by flow cytometry. The format is functional, organism-based.
Data set [28] deals with Human betaherpesvirus 5. Briefly: Antiviral activity against Human cytomegalovirus infected in human […] cells transfected with pcDNA3.1-human EF1alpha-GFP assessed as induction of GFP-tagged viral immediate early gene expression at 0.5 uM after 48 hrs by transactivation assay. The format is functional, organism-based. As to conditions: AD169.
For data set [29], the system named is Human betaherpesvirus 5. Briefly: Antiviral activity against Human cytomegalovirus infected in human […] cells transfected with pcDNA3.1-human GADPH-GFP assessed as induction of GFP-tagged viral immediate early gene expression at 0.5 uM after 48 hrs by transactivation assay. To be noted: AD169. The class given is functional, organism-based.
The subject of data set [30] is Human betaherpesvirus 5. Briefly: Antiviral activity against Human cytomegalovirus AD169 infected in human foreskin fibroblast assessed as inhibition of viral replication after 10 days by plaque reduction assay. To be noted: Human betaherpesvirus 5, AD169, 240 h. The class given is functional, organism-based.

The source made the active and inactive calls. The calls are words filed in the database; no cut-off is given here.

Consider `Nc1cc2c(=O)c(C(=O)O)cn(C3CC3)c2cc1N1CCN(c2ccccn2)CC1`, for which the CC50 in data set [1] amounted to 24 µM; in [4], 47 µM; in [17] it was 275 µM; in [20], 32 µM. The EC50 with Human betaherpesvirus 5 [2] was 1 µM; in the data set on Human gammaherpesvirus 8 [5], 14.2 µM; with Human betaherpesvirus 5 [7], 1.5 µM; in data set [8] it was 10.8 µM; with Human betaherpesvirus 5 [13] it was 1.1 µM; with Human betaherpesvirus 5 [14] it was 0.9 µM. Besides, the EC50 in [18] is 3.3 µM; with Human betaherpesvirus 5 [19], 0.9 µM; in data set [22], 5.1 µM. Moreover, the result in the data set with Human betaherpesvirus 5 [3], in the data set with Human betaherpesvirus 5 [9], with Human betaherpesvirus 5 [21] and in the data set with Human betaherpesvirus 5 [24] was inactive. For the same compound, the selectivity ratio in data set [6] was determined as 3; in [10] it was 6; in data set [11], 25; in data set [16], 7. The result in the data set with HSB-2, with Human gammaherpesvirus 8 [12] and in the data set with MOLT-4 was Active. Also, the “fold change (FC)” value in data set [15] amounted to 10. In [23], this compound displayed a CC50 at 120 h of 431 µM.

For `CC(C)(C)n1cc(C(=O)O)c(=O)c2cc(N)c(N3CCN(c4ccccn4)CC3)cc21`, the “Ratio CC50/EC50” value in [25] is recorded as “>=13”. The CC50 at 120 h in data set [23] was at least 475 µM.

Consider `Nc1cc2c(=O)c(C(=O)O)cn(C3CC3)c2cc1N1CCN(c2nc3ccccc3s2)CC1`, for which the outcome in the data set on Human betaherpesvirus 5 [26], with Human betaherpesvirus 5 [27], with Human betaherpesvirus 5 [28] and in the data set with Human betaherpesvirus 5 [29] was Active. The midpoint of cytotoxicity in [23], the CC50 at 120 h, lay at 4.5 µM.

As to `Cn1cc(C(=O)O)c(=O)c2cc(N)c(N3CCN(c4ccccn4)CC3)cc21`, the “Ratio CC50/EC50” value in [25] was 77. In data set [23], it took 54 µM to reach half-maximal cytotoxicity (CC50 at 120 h).

Consider `Nc1nc2c(ncn2COC(CO)CO)c(=O)[nH]1` [GANCICLOVIR], for which the EC50 with Human betaherpesvirus 5 [30] was 1.9 µM. This compound also came in with a CC50 at 120 h in [23] of 550 µM.

The CC50 is the concentration at which the toxic effect on the cells reaches its halfway point. The low end stands for harm at low concentration, the high end for better tolerance by the cells. As usually defined, the EC50 is the midpoint of the concentration-response curve.
